According to the supplement of paper PMC10307832:

Key:
Assay in all cases: relative viability (nuclei count vs DMSO), 5 days (fraction); higher = more cells survive
[1] = compound: NCC(=O)Nc1ccc(-n2nc(C(F)(F)F)cc2-c2ccc3c(ccc4ccccc43)c2)cc1 + O=C(CCCCCCC(=O)Nc1ccccc1)NO [Vorinostat] (partner 1 µM)
How it was run: (§1)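 Lung cancer cell lines were pin-tool dosed in 1536-well plates on the day after seeding, with either a lone drug or a fixed anchor-drug dose plus five library-drug doses (not always all listed) in √10 steps. Nuclei were counted on 4× images after 5 days. Relative viability is the ratio of treated-well to vehicle-well nuclei counts, with each value a median of duplicate plates.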

[2] = compound: C1CSC2=C(C(=O)N1)SC3=C2C=C(C=C3)O [kb NB 142-70] + Nc1nc2[nH]cc(CCc3ccc(C(=O)N[C@@H](CCC(=O)O)C(=O)O)cc3)c2c(=O)[nH]1 [Pemetrexed] (partner 0.2 µM)
How it was run: as §1

kb NB 142-70 + Foretinib = compound: C1CSC2=C(C(=O)N1)SC3=C2C=C(C=C3)O [kb NB 142-70] + COc1cc2c(Oc3ccc(NC(=O)C4(C(=O)Nc5ccc(F)cc5)CC4)cc3F)ccnc2cc1OCCCN1CCOCC1 [Foretinib] (partner 0.25 µM)
How it was run: as §1

[3] = compound: C1CSC2=C(C(=O)N1)SC3=C2C=C(C=C3)O [kb NB 142-70] + C[C@]1(O)C[C@@H](c2nc(-c3ccc4ccc(-c5ccccc5)nc4c3)c3c(N)nccn32)C1 [Linsitinib] (partner 1 µM)
How it was run: as §1

[4] = compound: NCC(=O)Nc1ccc(-n2nc(C(F)(F)F)cc2-c2ccc3c(ccc4ccccc43)c2)cc1 + C[C@@H](Oc1cc(-c2cnn(C3CCNCC3)c2)cnc1N)c1c(Cl)ccc(F)c1Cl [Crizotinib] (partner 1 µM)
How it was run: as §1

UMC-11
relative viability ([1]; first compound 0.02 µM): 0.337
relative viability ([1]; first compound 0.06325 µM): 0.434
relative viability ([1]; first compound 0.2 µM): 0.511
relative viability ([1]; first compound 0.6325 µM): 0.355
relative viability ([1]; first compound 2 µM): 0.383
relative viability ([2]; first compound 0.1 µM): 0.861
relative viability ([2]; first compound 1 µM): 0.779
relative viability ([2]; first compound 3.162 µM): 0.549
relative viability (kb NB 142-70 + Foretinib; first compound 0.1 µM): 0.934
relative viability (kb NB 142-70 + Foretinib; first compound 1 µM): 0.92
relative viability (kb NB 142-70 + Foretinib; first compound 3.162 µM): 0.64
relative viability ([3]; first compound 0.1 µM): 1.04
relative viability ([3]; first compound 1 µM): 0.984
relative viability ([3]; first compound 3.162 µM): 0.599
relative viability ([4]; first compound 0.02 µM): 0.728
relative viability ([4]; first compound 0.06325 µM): 0.638
relative viability ([4]; first compound 0.2 µM): 0.622
relative viability ([4]; first compound 0.6325 µM): 0.604
relative viability ([4]; first compound 2 µM): 0.567
